From paper PMC12362585, “Development and Preclinical Characterization of [^18F]H3-2406 and [^18F]H3-2407 for Positron Emission Tomography Imaging of the Histamine Subtype‑3 Receptor” (Journal of Medicinal Chemistry, 2025)

Tests used:
sigma-1 receptor [1] = biological target: T1, sigma-1 receptor (Mus musculus, UniProt O55242); experiment: PET imaging in mice with NE-100 or ABT-239 blocking; type: in vivo
T1 construct: we conducted additional in vivo PET imaging studies using NE-100; from tissue; host or cells: brain of living mice
T1 sequence (O55242 whole entry): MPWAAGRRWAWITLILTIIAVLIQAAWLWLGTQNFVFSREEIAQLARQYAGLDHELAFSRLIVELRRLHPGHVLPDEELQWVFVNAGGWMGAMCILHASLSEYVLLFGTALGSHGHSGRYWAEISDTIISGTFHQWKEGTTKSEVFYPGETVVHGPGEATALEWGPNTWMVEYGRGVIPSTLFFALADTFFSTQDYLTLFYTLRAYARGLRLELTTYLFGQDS

[2] = Ex vivo whole-body biodistribution; type: in vivo; conditions: 5 min postadministration, CD1 mice
Protocol: To further investigate the whole-body distribution of [^18F]3, ex vivo biodistribution experiments were conducted in CD1 mice at 5-, 15-, 30-, and 60 min postadministration. […] Initially, high levels of radioactivity were detected in the heart, lung, and kidney, with subsequent clearance observed in these organs over time. […] Minimal radioactivity was detected in the blood and bone at all time points throughout the study. […] These findings indicate that our tracer is relatively stable against in vivo defluorination.
A dose of 1.0 MBq of [^18F]3 in 0.1 mL saline was intravenously injected into the tail vein of CD1 mice (5–6 weeks). At various time-points (5-, 15-, 30- and 60 min) postinjection, the mice were sacrificed, and their organs were collected and weighed. The radioactivity of each organ was measured using a γ counter (PerkinElmer Wizard).

H3R [3] = biological target: T2, H3R (Homo sapiens, UniProt Q9Y5N1); experiment: H3R competitive radioligand binding assay using [^3H]AZ13582963; conditions: competitive binding vs [^3H]AZ13582963; read-out: H3R K i
T2 construct: Gifford Bioscience (contract laboratory that ran the assay)
T2 sequence (Q9Y5N1 whole entry, species assumed): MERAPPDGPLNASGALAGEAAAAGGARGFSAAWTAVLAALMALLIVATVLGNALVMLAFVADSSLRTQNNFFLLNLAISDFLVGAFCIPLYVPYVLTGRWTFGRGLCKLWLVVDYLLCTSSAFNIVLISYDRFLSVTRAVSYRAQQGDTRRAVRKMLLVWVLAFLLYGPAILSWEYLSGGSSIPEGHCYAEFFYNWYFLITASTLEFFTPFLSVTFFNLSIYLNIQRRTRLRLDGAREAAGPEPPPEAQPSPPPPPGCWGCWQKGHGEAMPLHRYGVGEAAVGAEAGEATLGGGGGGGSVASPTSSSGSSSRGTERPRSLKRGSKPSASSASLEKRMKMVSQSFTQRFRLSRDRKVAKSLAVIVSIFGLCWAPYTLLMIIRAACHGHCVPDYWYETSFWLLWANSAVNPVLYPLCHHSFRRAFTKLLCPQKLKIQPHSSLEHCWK

[4] = In vitro stability in liver microsomes, humans; type: in vitro ADME; conditions: 90 min
Protocol: (§1) To assess the stability of [^18F]3, in vitro radioactivity analyses were conducted following 30-, 60- and 90 min coincubation of the radioligand in the serum and liver microsomes from mice, nonhuman primates (NHPs), and humans (Figure ).
(§2) Serum from mice, NHPs, and humans were warmed to room temperature, 15 MBq of [^18F]3 was added to 0.4 mL of each species’ serum. The mixtures were incubated at 37 °C and 0.1 mL of mixture was transferred into 0.2 mL cold acetonitrile at 30, 60, and 90 min. The samples were vortexed for 15 s and then centrifuged at 10,000g for 5 min. The supernatant was analyzed using analytical HPLC (Agilent 1100 series HPLC system on Phenomenex Luna C-18 column (4.6 × 150 mm), mobile phase 30% CH3CN/0.1% TFA in water, flow:1 mL/min). For microsomes studies, a mixture of microsomes (0.5 mg/mL), [^18F]3 (15 MBq), 0.35 mL of PBS, 0.05 mL of NADPH regenerating system A, and 0.01 mL of NADPH regenerating system B were incubated at 37 °C. The subsequent steps followed the same procedure as described above.

H3R [5] = biological target: T3, H3R (Rattus norvegicus, UniProt Q9QYN8); experiment: In vitro autoradiography on rat brain sections; type: binding, SD rat
T3 construct: The brains of SD rat were sectioned into 15 μm slices; from tissue; host or cells: SD rat brain sections
T3 sequence (Q9QYN8 whole entry): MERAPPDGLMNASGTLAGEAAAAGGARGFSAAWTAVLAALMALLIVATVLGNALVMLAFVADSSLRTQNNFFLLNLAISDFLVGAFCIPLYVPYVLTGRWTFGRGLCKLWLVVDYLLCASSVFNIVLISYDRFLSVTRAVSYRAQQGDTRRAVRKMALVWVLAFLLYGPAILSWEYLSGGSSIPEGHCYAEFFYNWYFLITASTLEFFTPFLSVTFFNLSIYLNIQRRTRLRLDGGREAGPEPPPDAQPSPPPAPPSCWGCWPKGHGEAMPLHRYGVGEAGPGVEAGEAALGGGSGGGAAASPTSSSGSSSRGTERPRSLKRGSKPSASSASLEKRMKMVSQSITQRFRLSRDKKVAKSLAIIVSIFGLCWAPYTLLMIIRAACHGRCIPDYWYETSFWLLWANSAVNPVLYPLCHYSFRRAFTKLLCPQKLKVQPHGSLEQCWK
Protocol: To validate the target specificity and selectivity, in vitro autoradiography experiments were conducted using [^18F]3 and [^18F]4 on rat brain sections. […] Furthermore, pretreatment with unlabeled compound 3 (10 μM) led to a signal reduction of over 90% in the brain. […] This discrepancy is likely attributable to additional off-target binding of [^18F]3, which is further supported by high uptake in the cerebellum – a region with low H3R expression. […] The high uptake in the cerebellum may be attributed to nonspecific binding to unidentified CNS targets. […] Nonetheless, the results support further in vivo PET evaluation to better understand their binding profiles and evaluate their potential for H3R imaging – particularly in regions with low sigma-1 abundance.
The ARG was measured according to previously reported methods. , The brains of SD rat were sectioned into 15 μm slices and stored in −80 °C. For each experiment, the brain slices allowed them to warm to room temperature and then incubated in Tris-HCl buffer (50 mM, containing 0.1% bovine serum albumin) for 10 min. The slices were incubated with [^18F]3 or [^18F]4 (0.037 MBq/mL) in the presence of either DMSO (baseline study), GSK189254 (10 μM, blocking study), and unlabeled 3 or 4 (10 μM, blocking study) at room temperature for 30 min. Following incubation, the brain slices were washed three times with cold Tris-HCl buffer (50 mM) for 5 min each, and then dipped in water 2 times for 5 s. The brain slices were dried under cold air and exposed to a Phosphor Screen (BAS IP MS2025, Cytiva) for 2 h. The radioactivity and imaging were captured using an Amersham Typhoon 5 (Cytiva) and the data were analyzed using ImageJ software.

[6] = In vitro stability in liver microsomes, NHPs; type: in vitro ADME, nonhuman primates (NHPs); conditions: 90 min
Protocol: as §1, §2

sigma-1 receptor [7] = biological target: sigma-1 receptor (Homo sapiens, UniProt Q99720); experiment: sigma 1 binding assay; conditions: ratio of sigma-1 K i to H3R K i
Sequence of sigma-1 receptor (Homo sapiens, UniProt Q99720) (Q99720 whole entry, species assumed): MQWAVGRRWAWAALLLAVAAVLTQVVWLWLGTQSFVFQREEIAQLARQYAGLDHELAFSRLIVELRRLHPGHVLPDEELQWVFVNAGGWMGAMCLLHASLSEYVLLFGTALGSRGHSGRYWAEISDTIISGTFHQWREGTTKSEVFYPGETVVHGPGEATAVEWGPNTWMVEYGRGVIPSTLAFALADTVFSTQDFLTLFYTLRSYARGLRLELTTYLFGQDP

[8] = In vitro stability in serum, humans; type: in vitro ADME; conditions: human serum, 37 °C, 30, 60 and 90 min
Protocol: as §1, §2

[9] = Log D by shake-flask method; type: physicochemical; conditions: n-octanol/PBS
Protocol: To evaluate the binding affinities of compounds 1–9, competitive radioligand binding assays were conducted using [^3H]-AZ13582963 [4-(1S,2S)-2-(4-cyclobutylpiperazine-1-carbonyl)-cyclopropyl)-N-methyl-[2-^3 H]-benzamide]. […]. […]. Further, ACD Percepta predictions indicated these compounds are likely to cross the blood-brain barrier (BBB), as indicated by a log BB > −1 and a multiparameter optimization (MPO) score >4.0. High selectivity toward H3R over other CNS targets is essential for effective H3R PET imaging. Therefore, off-target screenings of compounds 2, 3, and 4 were conducted against various CNS receptors, G protein-coupled receptors (GPCRs), transporters, and ion channels at 10 μM (Figure S1). […]. Sigma-1 receptors, crucial for ion channel function and associated with learning, memory, and pain, , have shown synergy with H3R antagonists, including PF-03654746 and ABT-239, potentially enhancing in vivo efficacy.
The lipophilicity was measured according to previously reported methods. , In brief, PBS and n-octanol were premixed prior to the experiment. A solution containing 0.2 MBq of [^18F]3 or [^18F]4, PBS (3 mL) and n-octanol (3 mL) were prepared in a vial and vortexed for 5 min. The PBS and n-octanol layers were then separated and transferred into a centrifuge tube, followed centrifugation at 12,000 rpm for 5 min. Then PBS (0.5 mL) and n-octanol (0.05 mL) were weight and measured the radioactivity on a γ counter (PerkinElmer Wizard). The Log D values of [ ^18F]3 and [^18F]4 were calculated using the following formula: LogD=Log[(radioactivityn‐octanol/weightn‐octanol)/(radioactivityPBS/weightPBS)]

[10] = In vitro stability in liver microsomes, mice; type: in vitro ADME; conditions: 90 min
Protocol: as §1, §2

## O=C([C@H]1C[C@@H]1c1ccc([18F])cc1)N1CCN(C2CCCC2)CC1 [[^18F]3]
sigma-1 receptor [1]; ABT-239 (dual H3R and sigma-1 receptor antagonist) 3 mg/kg
  effect of ABT-239 preinjection on brain signal: near-complete signal blockade
sigma-1 receptor [1]; NE-100 (selective sigma-1 receptor antagonist) 3 mg/kg
  effect of NE-100 blocking on brain uptake: partial reduction
[2]
  brain uptake: 10.9 %ID/g
H3R [3]
  Ki: 2.87 nM
[4]
  parent fraction in liver microsomes: 95%
H3R [5]; GSK189254 10 μM
  reduction in radioactivity across brain regions, GSK189254 blocking: 43.6–86.0%
H3R [5]; unlabeled 3 or 4 at 10 μM
  signal reduction, self-blocking with unlabeled compound: over 90%
[6]
  parent fraction in liver microsomes: 85%
sigma-1 receptor [7]
  selectivity of H3R over sigma-1: 69 fold
[8]
  parent compound remaining intact in serum: over 95%
[9]
  logD: 2.82
[10]
  parent fraction in liver microsomes: 78%
